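Interpolation was linear, between the two tested concentrations surrounding the appropriate level; five concentrations were tested over 48 hours in 96-well plates. GI50 marks 50% less growth. At the TGI there is no net growth.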

Test in all cases: growth of human tumour cells (NCI), 48 h
Test [1] concerns PC-3 prostate.
The test system of test [2] is UACC-257 melanoma.
Test [3] deals with SF-268 CNS.
Test [4] relates to SR leukemia.
Test [5] concerns MDA-N.
For test [6], the system named is NCI-H522 lung.
Test [7] concerns CAKI-1 renal.
The subject of test [8] is TK-10 renal.
The subject of test [9] is HCC-2998 colon.
Test [10] concerns SK-OV-3 ovarian.

On to `O=C(NNC(=O)c1csc(NC(=S)NC2CCCCC2)n1)c1ccccc1`, for which the TGI in test [1] is 48.9 µM; in [2], 27.8 µM; in test [3], > 100 µM; in test [4] it was > 100 µM; in test [5], 31.1 µM; in test [6] it was 28.4 µM. Besides, the TGI in test [7] turned out to be 39.5 µM; in test [8], 85.6 µM; in test [9] it was 32.2 µM; in [10], 34.2 µM.

On to `O=C(N/N=C/c1ccccc1)c1cccc2nc3ccccc3nc12`, for which the TGI in test [1], in test [2], in test [3], in test [4], in [5] and in test [6] was > 100 µM in each case. Besides, the TGI in test [7], in test [8] and in [10] was > 100 µM each time.

With `CC(=O)N(C(C)=O)c1cc2c3c(c1)CCCN3CCC2`, the TGI in [1], in test [2], in test [3], in test [4], in test [5] and in test [6] was > 10 µM throughout. The TGI in test [7], in test [8], in [9] and in test [10] was > 10 µM throughout.

In the case of `ClCCCCCc1c2nc(c(CCCCCCl)c3ccc([nH]3)c(CCCCCCl)c3ccc([nH]3)c(CCCCCCl)c3nc1C=C3)C=C2`, the TGI in test [1], in test [2], in test [3], in test [4], in test [5] and in [6] was > 100 µM in each case. Besides, the TGI in test [7], in test [8], in test [9] and in [10] was > 100 µM throughout.

For `CC1(C)[C@@H]2C[C@H]1c1cnc(-c3ccccn3)cc1C2CCCCC[C@@H]1c2cc(-c3ccccn3)ncc2[C@@H]2C[C@H]1C2(C)C` (stereo partly drawn), the TGI is > 100 µM in [1]; > 100 µM in test [3]; > 100 µM in test [4]; 97.1 µM in test [5]; > 100 µM in [6]; > 30.3 µM in test [7]. The TGI in test [8], in [9] and in [10] was > 100 µM each time.

Turning to `COc1cc(OC)c2[nH]c3c(O)c(-c4c(C)cc5c([nH]c6c(OC)cc(OC)cc65)c4O)c(C)cc3c2c1`, the TGI in test [1] was 15.2 µM; in [2], 19 µM; in [3], 15.9 µM; in [4], 20 µM; in [5], 15.7 µM; in test [6], 16.6 µM. The TGI in test [7] came to 22.1 µM; in test [8], 17.9 µM; in test [9], 15.3 µM. The GI50 is 9.01 µM in test [4], 8.83 µM in [5] and 9.89 µM in test [7].

`CN1CC2CN(Cc3ccccc3)CCN2c2cccnc21` (stereo not drawn): the TGI in test [1], in test [2], in test [3], in test [4], in [5] and in test [6] was > 100 µM throughout. Also, the TGI in test [7], in test [8] and in [10] was > 100 µM throughout.

As to `CCOC(=O)c1cccc(NC(=O)CI)c1`, the TGI was found to be 2.39 µM in [1]; 2.95 µM in [2]; 0.0918 µM in [4]; 0.472 µM in test [5]; 0.347 µM in test [6]; 1.07 µM in test [7]. The TGI turned out to be 2.19 µM in [8], 4.34 µM in test [9] and 2.26 µM in test [10].

On to `Cc1ccc(N(C)S(=O)(=O)c2ccccc2[N+](=O)[O-])cc1`, for which the TGI was > 100 µM in test [1]; > 100 µM in test [2]; > 100 µM in [3]; > 100 µM in test [4]; > 100 µM in test [5]; 94.6 µM in test [6]. Moreover, the TGI in [7] and in test [8] was > 100 µM in each case.

Turning to `O=c1oc2cc(O)ccc2c(O)c1Cc1c(O)c2ccc(O)cc2oc1=O`, the TGI in test [1], in [2], in test [3], in test [4], in [5] and in [7] was > 100 µM in each case. Further, the TGI in test [8], in test [9] and in [10] was > 100 µM in each case.

With `Cc1ccc(C(=O)N/N=C(\N=Nc2ccc(C(=O)O)cc2)c2ccc(N(CCC#N)CCC#N)cc2C)cc1`, the TGI in test [1], in [2], in test [4], in [5], in test [7] and in test [8] was > 100 µM in each case. The TGI in test [9] and in [10] was > 100 µM each time.

On to `CN(Cc1cnc2c(N)nc(N)nc2n1)c1ccc(Cl)cc1`, for which the TGI in [1], in [2], in test [3], in test [4], in test [5] and in [7] was > 100 µM each time. For the same compound, the TGI in [8] and in test [10] was > 100 µM in each case.

Consider `COc1ccccc1C1c2cc3c(cc2OC(N2CCOCC2)C1C)OCO3` (stereo not drawn), for which the TGI was 71.9 µM in test [1]; 36.9 µM in test [2]; 40.9 µM in [3]; 52.9 µM in [4]; 24.8 µM in test [5]; 30.1 µM in test [6]. Also, the TGI in test [8] was > 100 µM.

As for `Cc1[nH]c(=O)nc(NNCc2ccc(Cl)cc2)c1C(=O)Nc1ccc(Cl)cc1`, the TGI in test [1], in test [2], in test [4], in test [5], in test [7] and in test [8] was > 100 µM in each case. Moreover, the TGI in [9] and in test [10] was > 100 µM throughout.

Regarding `O=c1cc(-c2ccccc2)[nH]c2nccn12`, the TGI in [1], in test [3], in test [4], in test [5], in test [6] and in test [7] was > 10 µM each time. For the same compound, the TGI in test [8], in test [9] and in [10] was > 10 µM in each case.

Take `CC(=O)Oc1ccc2c3c1O[C@H]1[C@H](O)CC[C@@]4(O)[C@@H](C2)N(C)CC[C@]314`: the TGI in test [1], in test [2], in test [3], in test [4], in test [5] and in [6] was > 100 µM in each case. The TGI in test [7], in [8] and in test [10] was > 100 µM throughout.

Consider `COc1cccc(/C=C2\S/C(=N/Nc3nc(-c4ccc([N+](=O)[O-])cc4)cs3)NC2=O)c1O`, for which the TGI came out at 40.2 µM in test [1]; 71.2 µM in [2]; 21.8 µM in [3]; 74.9 µM in test [4]; 57.5 µM in test [5]; 71.1 µM in test [7]. Further, the TGI in test [8] turned out to be 67.6 µM; in test [9] it was 33.7 µM; in test [10], 79.8 µM.

For `CSc1nc2c(c(=O)[nH]1)N=C(c1ccccc1)CC(c1ccccc1)N2` (stereo not drawn), the TGI is > 100 µM in [1]; > 100 µM in [2]; > 100 µM in test [4]; 46.6 µM in test [5]; 43.9 µM in test [6]; > 100 µM in test [7]. For the same compound, the TGI in test [9] is > 100 µM; in test [10], 89.7 µM.

As to `CC1=C(C(=O)N[C@@H](CC(C)C)C(=O)O)N2C(=O)[C@@H](NC(=O)C(N)c3ccccc3)[C@H]2SC1` (stereo partly drawn), the TGI in test [1], in test [2], in [3], in [4], in test [5] and in [6] was > 100 µM in each case. Moreover, the TGI in test [7], in test [8] and in test [9] was > 100 µM throughout.

Regarding `OC1CSc2nc3ccccc3n2C1` (stereo not drawn), the TGI in test [1], in test [2], in test [3], in test [4], in test [5] and in [7] was > 100 µM throughout. The TGI in test [8], in test [9] and in [10] was > 100 µM each time.

For `Cc1ccc2c(/C=C/c3ccc(N(C)C)cc3)ccc(C(C)C)cc1-2`, the TGI in test [1], in test [2], in test [3], in test [4], in test [5] and in [6] was > 100 µM each time. The TGI in test [7], in test [8] and in test [10] was > 100 µM in each case.

Source of the values: PubChem BioAssay (NCI).
